≈ marks a conversion by molar mass, not a printed value.
Key:
DNA gyrase = target: T1, DNA gyrase (Staphylococcus aureus, UniProt P0A0K8+P20831); experiment: S. aureus gyrase supercoiling assay; type: biochemical
T1 construct: purchased Inspiralis
Experimental: The assays were performed using S. aureus Gyrase Supercoiling Assay Kits (Inspiralis, Norwich, UK). Briefly, […] pBR322 plasmid DNA ([…]) was incubated with 1 unit of gyrase, in the dedicated supercoiling assay buffer supplied by the manufacturer, in the presence of varying concentrations of the compounds tested. Reactions were carried out at 37 °C for 1 h and then terminated by the addition of equal volume of 2 × STOP Buffer (40% sucrose, 100 mM Tris-Cl pH 7.5, 1 mM EDTA, and 0.5 mg/mL bromophenol blue) and chloroform/isoamyl alcohol. Samples were vortexed, centrifuged and run through a 15 cm 1% agarose gel in TAE buffer (40 mM Trisacetate, 2 mM EDTA) for 3 h at 50 V. Gels were stained with ethidium bromide and visualized under UV light.

[1] = system: Gram-positive and Gram-negative bacterial strains; experiment: antibacterial assay (disc diffusion / agar dilution); type: cell-based; details: even at high concentrations
From the text: The following microorganisms were used in this study: Staphylococcus aureus (ATCC 25923, ATCC 6538, ATCC 29213, NCTC 4163), Staphylococcus epidermidis ATCC 12228, Bacillus subtilis ATCC 6633, Bacillus cereus ATCC 11778, Micrococcus luteus (ATCC 9341, ATCC 10240), Escherichia coli (ATCC 10538, ATCC 25922, NCTC 8196), […] NCTC 4635, Pseudomonas aeruginosa (ATCC 15442, ATCC 27853, NCTC 6749), and Bordetella bronchiseptica ATCC 4617. Initially, antibacterial activity of thiosemicarbazide derivatives was screened on the basis of growth inhibition zone (giz) utilizing the disc diffusion method, according to the Clinical and Laboratory Standards Institute guidelines. For compounds showing the inhibitory effect on the growth of tested bacteria, monitored as an appearance of giz, the minimal inhibitory concentrations (MICs) were determined using agar dilution method, according to the Clinical and Laboratory Standards Institute guidelines. The minimal inhibitory concentrations (MICs) were defined as the lowest concentration of the compound preventing growth of the tested microorganism. In both methods, recommended Mueller-Hinton II agar medium (Becton Dickinson, Heidelberg, Germany) was used. Solutions containing the tested agents were prepared in methanol or DMSO. Ciprofloxacin was used as control antimicrobial agent.

[2] = MTT cell viability assay (ISO 10993-5); type: cell-based, mouse; details: mouse, 24 h, ± SD, read-out: viability of L929 cells
Experimental: Cell line L929 (ATTC® Catalog No. […] The MTT assay was used according to international standards: ISO 10993-5:2009(E), Biological evaluation of medical devices, Part 5: Tests for in vitro cytotoxicity. […] Then, 1 mg/mL MTT (50 μL/well) was added to each well and incubated at 37 °C, 10% CO2 for 2 h. Mitochondrial dehydrogenases of viable cells reduced the yellowish water-soluble MTT to water-insoluble formazan crystals, which were solubilized with dimethyl sulfoxide (DMSO). The cell culture medium was aspirated cautiously, after which 150 μL DMSO was added to each well and mixed thoroughly. Optical density (OD) was read on the ELISA reader (Multiskan EX, Labsystems, Vienna, VA, USA) at 550 nm. […] All experiments were performed in triplicate.

topoisomerase IV = target: T2, topoisomerase IV (Staphylococcus aureus, UniProt P0C1S7+P0C1U9); experiment: S. aureus topoisomerase IV decatenation assay; type: biochemical
T2 construct: purchased Inspiralis
T2 sequence (P0C1U9 whole entry): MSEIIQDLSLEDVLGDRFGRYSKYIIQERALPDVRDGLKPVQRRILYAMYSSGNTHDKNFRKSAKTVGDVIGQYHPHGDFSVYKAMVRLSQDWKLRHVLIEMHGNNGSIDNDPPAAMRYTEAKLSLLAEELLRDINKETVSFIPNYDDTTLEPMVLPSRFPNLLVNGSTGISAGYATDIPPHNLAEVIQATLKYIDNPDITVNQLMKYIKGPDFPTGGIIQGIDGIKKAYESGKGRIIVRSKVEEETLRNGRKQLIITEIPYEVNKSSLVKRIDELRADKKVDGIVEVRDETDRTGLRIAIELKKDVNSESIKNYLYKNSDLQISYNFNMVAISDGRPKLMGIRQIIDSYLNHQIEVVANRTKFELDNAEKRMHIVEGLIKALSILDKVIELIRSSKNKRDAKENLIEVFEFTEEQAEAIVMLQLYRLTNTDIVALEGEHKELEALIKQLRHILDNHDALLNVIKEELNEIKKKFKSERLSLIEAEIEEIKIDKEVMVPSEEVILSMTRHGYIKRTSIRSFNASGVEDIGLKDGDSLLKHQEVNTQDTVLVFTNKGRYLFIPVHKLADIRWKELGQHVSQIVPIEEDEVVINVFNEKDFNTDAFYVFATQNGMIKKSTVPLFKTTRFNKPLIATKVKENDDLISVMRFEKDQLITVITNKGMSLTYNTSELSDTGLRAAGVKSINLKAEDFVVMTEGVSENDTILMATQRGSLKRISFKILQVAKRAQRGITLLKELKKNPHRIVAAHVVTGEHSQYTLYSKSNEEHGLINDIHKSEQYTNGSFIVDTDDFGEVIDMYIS
T2 sequence (P0C1S7 whole entry): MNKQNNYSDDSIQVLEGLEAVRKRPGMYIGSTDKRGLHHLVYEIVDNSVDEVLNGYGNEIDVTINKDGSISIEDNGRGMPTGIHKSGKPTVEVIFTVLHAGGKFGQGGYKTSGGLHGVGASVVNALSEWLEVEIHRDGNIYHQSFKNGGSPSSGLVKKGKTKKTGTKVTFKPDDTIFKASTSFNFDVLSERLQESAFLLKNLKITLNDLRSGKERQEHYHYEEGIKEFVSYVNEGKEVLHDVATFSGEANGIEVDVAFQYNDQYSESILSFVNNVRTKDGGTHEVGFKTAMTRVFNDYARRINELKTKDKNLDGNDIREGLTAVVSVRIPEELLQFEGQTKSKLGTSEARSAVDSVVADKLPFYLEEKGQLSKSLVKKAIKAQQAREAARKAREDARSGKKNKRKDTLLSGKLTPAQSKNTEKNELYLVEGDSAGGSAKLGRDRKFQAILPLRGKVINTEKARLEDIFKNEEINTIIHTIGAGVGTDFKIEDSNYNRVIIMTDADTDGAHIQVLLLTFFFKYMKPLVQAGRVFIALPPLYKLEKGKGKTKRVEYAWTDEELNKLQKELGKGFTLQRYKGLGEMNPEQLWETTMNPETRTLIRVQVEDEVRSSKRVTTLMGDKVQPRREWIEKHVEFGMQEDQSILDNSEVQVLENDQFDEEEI
Experimental: The assays were performed using S. aureus topoisomerase IV decatenation kits (Inspiralis). Interlinked kDNA substrate ([…]) was incubated with 1 unit of topoisomerase IV (Inspiralis), in the dedicated decatenation assay buffer supplied by the manufacturer, in the presence of varying concentrations of the compounds tested. Reactions were carried out at 37 °C for 1 h and then terminated by the addition of equal volume of 2× STOP Buffer (40% sucrose, 100 mM Tris-Cl pH 7.5, 1 mM EDTA, 0.5 mg/mL bromophenol blue) and chloroform/isoamyl alcohol. Samples were vortexed, centrifuged and run through a 15 cm 1% agarose gel in TAE buffer for 1.5 h at 80 V. Gels were stained with ethidium bromide and visualized under UV light. The concentrations of the inhibitor that prevented 50% of the kinetoplast DNA from being converted into decatenated minicircles (IC50 values) were determined by plotting the results obtained from the densytometric analyses of the gel images using Quantity One software (BioRad, Hercules, CA, USA).

[3] = system: T. gondii RH strain tachyzoites; experiment: [3H]uracil incorporation assay of T. gondii proliferation in L929 host cells; type: cell-based, Toxoplasma gondii; details: assay A [3H]uracil incorporation, vs untreated blank
Experimental: In the next step of our studies, the prepared 1,4-disubstituted thiosemicarbazides (series 1–3) were used to assess the inhibition of T. gondii growth in vitro. For this purpose, intracellular parasites (tachyzoites) of RH strain were incubated with different concentrations of the thiosemicarbazides ranging from 1 to 100 µg/mL. Inhibition of the parasite growth was monitored by measuring the specific incorporation of [^3H]uracil in the parasite’s nucleic acids.
The tachyzoites of T. gondii strain RH – intraspecies type I (ATCC_ Number 50174™) were maintained through passages on female C57BL/6 (H-2^b) and BALB/c (H-2^d) mice with genetically determined high and low susceptibility (respectively) to T. gondii infection (10–12 weeks old). Tachyzoites washed out from the peritoneum cavity were once expanded in vitro on L929 cells.
L929, (2 × 10^4 cells/100 µL/well) were grown in complete medium (IMDM) on 96-well plates. After 24 h incubation, a medium was removed and then T. gondii RH tachyzoites, suspended in culture medium supplemented with 1.0, 5.0, 10.0, 50.0 and 100.0 μg/mL 1,4-disubstituted thiosemicarbazides (1g, 2b, 2m, 3d, 3l) and as a control-sulfadiazine, were added (2 × 10^5 tachyzoites/200 µL/well) to the cell monolayers. After subsequent 48 h incubation 1 µCi/well of [^3H] uracil (Moravek Biochemicals Inc., Brea, CA, USA) was applied to each microculture for further 18–20 h. The amount of the isotope incorporated into the parasite nucleic acid pool, corresponding to the parasite growth, was measured by liquid scintillation counting with 1450 Microbeta Plus Liquid Scintillation Counter (Wallac Oy, Turku, Finland).

T. gondii RH strain = experiment: quantitative real-time PCR (B1 gene) of T. gondii in infected L929 cells; type: cell-based, Toxoplasma gondii; details: assay B qRT-PCR, L929 host cells
Experimental: T. gondii genomic DNA was isolated from the tachyzoites of RH strain with Wizard® SV Genomic DNA Purification System (Promega, Madison, WI, USA) according to the manufacturer’s instruction. The DNA concentration and purity were measured using a NanoPhotometer (Implen, München, Germany), while the integrity of the extracted DNA was tested using an ethidium bromide-stained agarose gel. DNA was used for the detection and quantitationof T. gondii in analyzed samples and it was stored at −20 °C until use.
A quantitative real-time PCR (qRT-PCR) assay, targeting B1 gene was performed to detect and to quantitate T. gondii in analyzed samples (1g, 2b, 2m, 3d, 3l and sulphadiazine) according to the modified protocol of Wahab et al.. […] Amplification was carried out on a 7900HT real-time PCR system (Applied Biosystems, Carlsbad, CA, USA). The reaction mixtures (25 µL) consisted of 1x TaqMan PCR master mix supplemented with ROX (Applied Biosystems), 300 nM probe, 900 nM of each primer and 2 µL of template DNA. For quantification a standard curve was constructed using 10-fold serial dilutions of DNA extracted from a known number of T. gondii. The cycling parameters were: 50 °C for 2 min, initial activation at 95 °C for 10 min, and 45 two-step cycles of 95 °C for 15 s and 60 °C for 1 min. All samples were analyzed in triplicate.

[4] = system: T. gondii RH strain tachyzoites; experiment: [3H]uracil incorporation assay of T. gondii proliferation in L929 host cells; type: cell-based; details: Toxoplasma gondii, L929, read-out: IC50 (50% of T. gondii proliferation inhibition in vitro)

T1 sequence (P0A0K8 whole entry): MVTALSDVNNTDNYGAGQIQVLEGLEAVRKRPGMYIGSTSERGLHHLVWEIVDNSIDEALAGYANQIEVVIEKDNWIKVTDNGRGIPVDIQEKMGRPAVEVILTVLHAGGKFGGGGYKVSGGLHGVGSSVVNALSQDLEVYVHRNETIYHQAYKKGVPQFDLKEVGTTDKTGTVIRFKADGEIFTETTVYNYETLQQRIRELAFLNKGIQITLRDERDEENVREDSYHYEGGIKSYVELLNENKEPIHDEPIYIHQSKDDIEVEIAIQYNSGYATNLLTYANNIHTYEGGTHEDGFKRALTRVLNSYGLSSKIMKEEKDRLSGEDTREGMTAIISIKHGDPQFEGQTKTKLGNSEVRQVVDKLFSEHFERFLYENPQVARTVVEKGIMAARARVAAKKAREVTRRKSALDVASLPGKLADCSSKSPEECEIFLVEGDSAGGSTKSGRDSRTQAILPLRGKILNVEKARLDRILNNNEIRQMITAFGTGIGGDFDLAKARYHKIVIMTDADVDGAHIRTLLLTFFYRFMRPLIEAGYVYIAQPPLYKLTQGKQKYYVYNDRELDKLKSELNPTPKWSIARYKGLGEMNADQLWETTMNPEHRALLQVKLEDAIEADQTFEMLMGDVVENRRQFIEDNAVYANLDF
T1 sequence (P20831 whole entry): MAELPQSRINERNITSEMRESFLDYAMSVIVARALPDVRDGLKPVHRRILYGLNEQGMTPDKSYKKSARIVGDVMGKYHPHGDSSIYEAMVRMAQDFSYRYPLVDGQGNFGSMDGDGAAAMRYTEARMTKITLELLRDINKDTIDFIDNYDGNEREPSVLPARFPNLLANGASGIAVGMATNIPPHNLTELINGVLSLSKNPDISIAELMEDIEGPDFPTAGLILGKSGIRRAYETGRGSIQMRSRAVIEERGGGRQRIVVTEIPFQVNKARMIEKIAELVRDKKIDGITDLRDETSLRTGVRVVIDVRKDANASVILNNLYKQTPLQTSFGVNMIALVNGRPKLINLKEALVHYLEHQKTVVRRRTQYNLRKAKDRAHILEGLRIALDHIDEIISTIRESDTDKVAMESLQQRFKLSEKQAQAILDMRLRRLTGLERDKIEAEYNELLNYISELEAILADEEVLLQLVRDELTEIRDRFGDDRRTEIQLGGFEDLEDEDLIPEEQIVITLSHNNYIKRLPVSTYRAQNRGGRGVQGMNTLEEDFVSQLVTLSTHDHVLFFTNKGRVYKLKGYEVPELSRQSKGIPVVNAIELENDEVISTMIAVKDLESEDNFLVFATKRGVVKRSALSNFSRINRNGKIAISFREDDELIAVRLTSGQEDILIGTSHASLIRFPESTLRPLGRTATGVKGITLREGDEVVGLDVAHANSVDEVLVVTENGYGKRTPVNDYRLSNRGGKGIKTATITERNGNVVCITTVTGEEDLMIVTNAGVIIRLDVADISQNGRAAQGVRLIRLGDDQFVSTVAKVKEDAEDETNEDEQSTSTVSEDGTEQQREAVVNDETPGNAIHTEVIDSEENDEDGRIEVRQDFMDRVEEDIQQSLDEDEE

Compound: O=C(NNC(=S)Nc1ccc(F)cc1)c1cccs1 [Compound 1g, 4-(4-fluorophenyl)-1-(thiophen-2-yl)carbonylthiosemicarbazide]
- inhibitory effect on DNA gyrase (DNA gyrase): No inhibitory effect
- growth-inhibiting effect on bacterial strains [1]: no growth-inhibiting effect
- viability at 24 h, 1 µg/mL ([2]; 1 µg/mL): 103 ± 2.69%
- viability at 24 h, 5 µg/mL ([2]; 5 µg/mL): 99.5 ± 5.16%
- viability at 24 h, 10 µg/mL ([2]; 10 µg/mL): 97.3 ± 4.98%
- viability at 24 h, 50 µg/mL ([2]; 50 µg/mL): 79 ± 2.89%
- viability at 24 h, 100 µg/mL ([2]; 100 µg/mL): 67 ± 11.4%
- viability at 24 h, 500 µg/mL ([2]; 500 µg/mL): 39.8 ± 5.83%
- inhibitory effect on topoisomerase IV (topoisomerase IV): No inhibitory effect
- intensity of T. gondii proliferation ([3]; 1 µg/mL): 96.14 ± 14.54%
- intensity of T. gondii proliferation ([3]; 5 µg/mL): 74.94 ± 7.00 %
- intensity of T. gondii proliferation ([3]; 10 µg/mL): 44.71 ± 16.60 %
- intensity of T. gondii proliferation ([3]; 50 µg/mL): 12.62 ± 4.78 %
- intensity of T. gondii proliferation (T. gondii RH strain; 10 µg/mL): 61.01 ± 11.23 %
- intensity of T. gondii proliferation (T. gondii RH strain; 50 µg/mL): 5.00 ± 2.56 %
- IC50 [4]: 33.2 µg/mL (≈ 112 µM)

Source: paper PMC6290556, “1,4-Disubstituted Thiosemicarbazide Derivatives are Potent Inhibitors of Toxoplasma gondii Proliferation” (Molecules, 2014)
